Measurements from the supplement of paper PMC12463676, “Small-molecule dissolution of stress granules by redox modulation benefits ALS models” (Nature Chemical Biology, 2025).

How the values were obtained:
potassium arsenate = compound: O=[As]([O-])(O)O.[K+] [potassium arsenate]; experiment: thermal stability z-score vs DMSO; higher = more thermally stabilized by treatment; settings: HeLa; arsenate concentration 1 mM
Protocol: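 Cellular thermal proteome profiling in HeLa cells treated with 1 mM arsenate for 1 h (DMSO pretreatment), heated to ten temperatures (37-66.3 °C). Soluble protein was quantified by TMT mass spectrometry relative to DMSO controls; the thermal stability score was transformed to a z-score; mean of n = 3 experiments.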

lipoamide = compound: NC(=O)CCCCC1CCSS1 [lipoamide]; experiment: as above; settings: HeLa, lipoamide concentration 100 µM
Protocol: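 Cellular thermal proteome profiling in HeLa cells. Cells were treated with 100 µM lipoamide for 1 h, with or without 1 mM arsenate for a further 1 h, then heated to ten temperatures (37-66.3 °C), and soluble protein was quantified by TMT mass spectrometry relative to 0.1% DMSO controls. The thermal stability score (sum of log2 fold changes minus the abundance score) was transformed to a z-score; mean of n = 3 experiments.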

[1] = arsenate co-treatment: 1 mM arsenate 1 h
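Note: each temperature applied for 3 min, abundance score taken as mean log2 fold change at the two lowest temperatures, z-score obtained by mean subtraction and division by SD.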

Sequence of UniProt Q96F86 (Q96F86 whole entry): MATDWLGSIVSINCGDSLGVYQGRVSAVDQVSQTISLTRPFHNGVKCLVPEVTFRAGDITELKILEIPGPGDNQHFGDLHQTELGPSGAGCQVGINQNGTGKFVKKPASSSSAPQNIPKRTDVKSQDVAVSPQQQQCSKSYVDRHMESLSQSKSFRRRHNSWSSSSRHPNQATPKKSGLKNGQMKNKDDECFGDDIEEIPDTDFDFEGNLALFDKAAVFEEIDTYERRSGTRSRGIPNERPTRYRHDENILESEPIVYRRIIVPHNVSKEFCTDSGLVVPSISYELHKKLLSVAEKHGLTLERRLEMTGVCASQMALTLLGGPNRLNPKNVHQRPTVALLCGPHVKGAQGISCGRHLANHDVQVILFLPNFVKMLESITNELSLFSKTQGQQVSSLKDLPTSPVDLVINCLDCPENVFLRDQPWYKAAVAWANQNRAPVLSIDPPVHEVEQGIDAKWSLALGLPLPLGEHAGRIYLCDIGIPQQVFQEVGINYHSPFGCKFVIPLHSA
Sequence of UniProt Q16666 (Q16666 whole entry): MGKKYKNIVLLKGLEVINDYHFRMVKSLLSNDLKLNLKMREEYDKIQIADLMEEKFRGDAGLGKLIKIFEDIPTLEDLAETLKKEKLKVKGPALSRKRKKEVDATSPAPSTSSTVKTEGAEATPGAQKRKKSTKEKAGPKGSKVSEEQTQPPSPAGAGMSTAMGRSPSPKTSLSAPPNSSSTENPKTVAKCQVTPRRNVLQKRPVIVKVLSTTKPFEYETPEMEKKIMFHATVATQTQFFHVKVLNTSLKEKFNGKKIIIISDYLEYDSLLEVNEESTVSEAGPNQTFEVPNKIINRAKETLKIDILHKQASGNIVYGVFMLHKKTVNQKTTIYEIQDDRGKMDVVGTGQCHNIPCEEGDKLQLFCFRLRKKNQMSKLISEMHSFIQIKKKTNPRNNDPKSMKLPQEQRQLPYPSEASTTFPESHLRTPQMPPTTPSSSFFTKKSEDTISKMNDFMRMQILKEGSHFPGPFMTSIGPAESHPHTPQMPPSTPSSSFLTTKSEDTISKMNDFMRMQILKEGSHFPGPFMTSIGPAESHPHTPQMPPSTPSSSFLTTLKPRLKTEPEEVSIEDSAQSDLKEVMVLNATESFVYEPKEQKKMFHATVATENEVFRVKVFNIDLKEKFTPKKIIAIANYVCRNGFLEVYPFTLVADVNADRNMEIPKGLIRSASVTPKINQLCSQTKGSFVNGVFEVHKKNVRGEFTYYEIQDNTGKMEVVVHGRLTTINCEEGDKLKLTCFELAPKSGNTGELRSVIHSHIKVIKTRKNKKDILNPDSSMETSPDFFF
Sequence of UniProt P54802 (P54802 whole entry): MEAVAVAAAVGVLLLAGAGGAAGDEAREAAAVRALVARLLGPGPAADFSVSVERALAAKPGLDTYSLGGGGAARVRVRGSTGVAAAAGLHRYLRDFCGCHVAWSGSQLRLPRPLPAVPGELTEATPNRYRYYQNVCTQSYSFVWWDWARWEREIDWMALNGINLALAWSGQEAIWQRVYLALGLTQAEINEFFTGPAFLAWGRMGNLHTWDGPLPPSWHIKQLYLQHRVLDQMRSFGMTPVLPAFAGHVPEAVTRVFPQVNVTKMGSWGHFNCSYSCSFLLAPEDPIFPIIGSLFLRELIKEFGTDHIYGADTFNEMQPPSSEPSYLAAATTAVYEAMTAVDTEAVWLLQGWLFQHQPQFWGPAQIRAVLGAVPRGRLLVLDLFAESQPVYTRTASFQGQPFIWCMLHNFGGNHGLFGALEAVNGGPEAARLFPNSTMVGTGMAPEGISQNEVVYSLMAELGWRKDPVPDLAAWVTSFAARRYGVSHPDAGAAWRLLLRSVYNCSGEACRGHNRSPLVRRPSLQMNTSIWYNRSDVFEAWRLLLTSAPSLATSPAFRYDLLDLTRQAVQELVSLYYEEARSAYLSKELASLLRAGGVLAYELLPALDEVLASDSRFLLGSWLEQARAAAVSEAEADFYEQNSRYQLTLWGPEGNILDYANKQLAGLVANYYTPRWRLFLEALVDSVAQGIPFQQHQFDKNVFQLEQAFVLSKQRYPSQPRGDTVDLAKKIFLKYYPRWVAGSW
Sequence of UniProt Q96BK5 (Q96BK5 whole entry): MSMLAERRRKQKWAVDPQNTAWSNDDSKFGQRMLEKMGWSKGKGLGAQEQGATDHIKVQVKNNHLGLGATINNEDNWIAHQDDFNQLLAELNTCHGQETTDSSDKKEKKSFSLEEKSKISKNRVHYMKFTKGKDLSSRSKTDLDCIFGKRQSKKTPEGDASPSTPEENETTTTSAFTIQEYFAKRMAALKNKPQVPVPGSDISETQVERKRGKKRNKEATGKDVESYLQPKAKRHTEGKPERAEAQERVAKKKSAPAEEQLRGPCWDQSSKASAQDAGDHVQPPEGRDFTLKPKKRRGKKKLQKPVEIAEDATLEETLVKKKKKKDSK
Sequence of UniProt Q8TBM8 (Q8TBM8 whole entry): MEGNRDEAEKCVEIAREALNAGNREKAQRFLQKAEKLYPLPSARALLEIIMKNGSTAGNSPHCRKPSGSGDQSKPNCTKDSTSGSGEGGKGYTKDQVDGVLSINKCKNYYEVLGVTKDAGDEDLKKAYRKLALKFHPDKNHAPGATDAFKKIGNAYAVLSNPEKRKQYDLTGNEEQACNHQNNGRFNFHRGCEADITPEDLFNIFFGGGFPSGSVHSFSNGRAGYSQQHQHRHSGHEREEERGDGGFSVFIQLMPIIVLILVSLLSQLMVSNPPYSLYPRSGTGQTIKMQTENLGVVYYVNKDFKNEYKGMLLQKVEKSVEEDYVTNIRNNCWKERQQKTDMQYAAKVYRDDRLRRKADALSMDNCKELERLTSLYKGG
Sequence of UniProt P61088 (P61088 whole entry): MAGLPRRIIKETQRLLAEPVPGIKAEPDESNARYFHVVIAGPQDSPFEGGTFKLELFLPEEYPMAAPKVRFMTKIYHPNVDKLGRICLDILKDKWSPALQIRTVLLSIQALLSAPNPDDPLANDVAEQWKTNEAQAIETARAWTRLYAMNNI
Sequence of UniProt Q8NI37 (Q8NI37 whole entry): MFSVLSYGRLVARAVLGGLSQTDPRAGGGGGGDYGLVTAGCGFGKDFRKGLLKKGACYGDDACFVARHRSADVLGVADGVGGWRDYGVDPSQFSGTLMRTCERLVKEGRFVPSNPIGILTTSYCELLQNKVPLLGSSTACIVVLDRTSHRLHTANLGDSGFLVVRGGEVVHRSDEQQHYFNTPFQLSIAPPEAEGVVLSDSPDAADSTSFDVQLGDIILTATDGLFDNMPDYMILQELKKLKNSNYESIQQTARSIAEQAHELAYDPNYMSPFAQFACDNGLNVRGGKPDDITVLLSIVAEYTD
Sequence of UniProt Q13033 (Q13033 whole entry): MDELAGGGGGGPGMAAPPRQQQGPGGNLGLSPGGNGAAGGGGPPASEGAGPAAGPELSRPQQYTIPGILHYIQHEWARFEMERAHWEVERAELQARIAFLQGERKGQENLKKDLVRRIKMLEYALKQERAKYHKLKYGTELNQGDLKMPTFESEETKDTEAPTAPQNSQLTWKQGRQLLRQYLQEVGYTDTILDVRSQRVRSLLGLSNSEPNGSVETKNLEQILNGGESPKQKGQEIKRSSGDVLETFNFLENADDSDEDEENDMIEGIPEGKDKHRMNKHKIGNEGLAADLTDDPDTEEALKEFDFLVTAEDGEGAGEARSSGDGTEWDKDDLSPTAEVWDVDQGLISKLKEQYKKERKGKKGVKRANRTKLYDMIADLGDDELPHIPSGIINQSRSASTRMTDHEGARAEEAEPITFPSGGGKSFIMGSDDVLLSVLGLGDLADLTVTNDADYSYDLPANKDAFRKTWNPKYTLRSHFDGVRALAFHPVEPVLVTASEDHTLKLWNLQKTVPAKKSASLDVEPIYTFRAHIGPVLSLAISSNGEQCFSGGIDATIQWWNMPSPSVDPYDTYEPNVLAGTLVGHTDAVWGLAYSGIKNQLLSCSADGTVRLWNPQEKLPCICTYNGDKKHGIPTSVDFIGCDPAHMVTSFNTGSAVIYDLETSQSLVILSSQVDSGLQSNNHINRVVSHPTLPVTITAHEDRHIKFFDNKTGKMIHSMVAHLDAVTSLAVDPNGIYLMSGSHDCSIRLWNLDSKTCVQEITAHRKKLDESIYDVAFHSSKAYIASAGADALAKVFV
Sequence of UniProt Q9H4L5 (Q9H4L5 whole entry): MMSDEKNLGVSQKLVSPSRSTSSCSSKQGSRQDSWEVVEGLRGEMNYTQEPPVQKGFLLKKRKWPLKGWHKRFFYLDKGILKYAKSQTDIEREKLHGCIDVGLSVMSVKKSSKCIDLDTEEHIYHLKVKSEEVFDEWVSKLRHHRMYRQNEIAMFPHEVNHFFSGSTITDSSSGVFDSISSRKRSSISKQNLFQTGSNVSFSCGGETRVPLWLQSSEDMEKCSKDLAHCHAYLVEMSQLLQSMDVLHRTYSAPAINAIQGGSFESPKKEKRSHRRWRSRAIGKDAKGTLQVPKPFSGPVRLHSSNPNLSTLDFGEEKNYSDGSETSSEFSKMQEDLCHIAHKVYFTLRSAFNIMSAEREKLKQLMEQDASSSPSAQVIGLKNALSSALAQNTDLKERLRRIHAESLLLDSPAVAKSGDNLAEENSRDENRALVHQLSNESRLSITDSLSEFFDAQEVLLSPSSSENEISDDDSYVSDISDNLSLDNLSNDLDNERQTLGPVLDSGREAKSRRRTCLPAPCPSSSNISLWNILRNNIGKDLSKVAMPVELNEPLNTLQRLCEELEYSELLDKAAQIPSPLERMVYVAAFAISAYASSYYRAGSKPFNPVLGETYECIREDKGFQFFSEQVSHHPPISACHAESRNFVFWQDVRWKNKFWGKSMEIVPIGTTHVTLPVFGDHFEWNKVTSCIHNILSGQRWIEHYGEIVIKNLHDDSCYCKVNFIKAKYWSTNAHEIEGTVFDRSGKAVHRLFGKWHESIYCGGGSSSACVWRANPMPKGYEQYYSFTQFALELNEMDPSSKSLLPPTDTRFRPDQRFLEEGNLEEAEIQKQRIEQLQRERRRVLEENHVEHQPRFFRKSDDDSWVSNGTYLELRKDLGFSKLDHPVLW
Sequence of UniProt P07108 (P07108 whole entry): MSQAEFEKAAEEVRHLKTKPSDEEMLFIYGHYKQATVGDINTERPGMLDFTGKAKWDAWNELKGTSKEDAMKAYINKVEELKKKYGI

Target	thermal stability z-score (potassium arsenate)	thermal stability z-score (lipoamide; [1])	thermal stability z-score (lipoamide; arsenate co-treatment: none)
RAB4A (UniProt P20338)	0.408	0.387	0.311
UBE2N (UniProt P61088)	-0.899	-0.524	-0.293
DNAJB4 (UniProt Q9UDY4)	-0.708	-0.368	-0.146
MYL12A|MYL12B	-0.0176	0.352	0.436
GEMIN6 (UniProt Q8WXD5)	-0.129	0.0364	-0.18
TCERG1 (UniProt O14776)	-0.0887	0.7	0.361
ARL2BP (UniProt Q9Y2Y0)	-0.326	-0.0213	0.0527
MGLL (UniProt Q99685)	-0.132	0.592	0.117
IDH3A (UniProt P50213)	-1.11	-0.0281	-0.439
RNF220 (UniProt Q5VTB9)	-0.283	-0.19	-0.015
SETMAR (UniProt Q53H47)	-0.122	-0.298	-0.25
GCLM (UniProt P48507)	2.05	1.62	0.394
EDC3 (UniProt Q96F86)	-0.555	-0.713	-0.608
CUX1	0.272	0.393	0.589
ACTR2 (UniProt P61160)	-0.487	-0.116	-0.175
TSC22D4 (UniProt Q9Y3Q8)	-0.0991	-1.89	-0.035
OSBPL3 (UniProt Q9H4L5)	-0.969	-1.67	-0.909
PFDN1 (UniProt O60925)	0.744	1.42	1.53
IGF2BP3 (UniProt O00425)	-0.579	-0.521	-0.325
POFUT2 (UniProt Q9Y2G5)	-0.177	-1.74	-2.4
PPTC7 (UniProt Q8NI37)	0.222	-0.248	-0.287
LAMTOR5 (UniProt O43504)	0.0111	-0.306	-0.405
RAB8A (UniProt P61006)	0.332	0.0143	0.344
BAG4 (UniProt O95429)	0.76	0.25	0.752
PSMD4 (UniProt P55036)	0.383	0.377	0.242
PFKFB3 (UniProt Q16875)	0.00649	-0.179	-0.149
DAG1 (UniProt Q14118)	0.184	-0.341	-0.236
IFI16 (UniProt Q16666)	-0.386	0.022	0.122

Target	thermal stability z-score (potassium arsenate)	thermal stability z-score (lipoamide; [1])	thermal stability z-score (lipoamide; arsenate co-treatment: none)
PINX1 (UniProt Q96BK5)	-2.03	-0.717	-0.225
METAP1 (UniProt P53582)	0.894	-0.0942	-0.673
COPB1 (UniProt P53618)	0.367	0.189	0.0616
GPD2 (UniProt P43304)	-0.0843	0.223	0.223
ATG4B (UniProt Q9Y4P1)	-0.73	0.0217	-0.419
TRIO (UniProt O75962)	0.0185	-0.939	-0.335
IRF2BP1 (UniProt Q8IU81)	-0.228	-0.196	-0.13
DNAJB14 (UniProt Q8TBM8)	-0.17	0.0418	0.157
NAGLU (UniProt P54802)	0.253	0.208	-0.281
PSMD6 (UniProt Q15008)	-0.212	-0.22	0.0409
RPS2 (UniProt P15880)	-0.532	0.307	0.259
STRN3 (UniProt Q13033)	0.326	0.231	0.318
RQCD1 (UniProt Q92600)	0.74	-0.57	-0.143
ACTG1 (UniProt P63261)	-0.572	-0.494	-0.484
TXNL1 (UniProt O43396)	7	-0.206	-0.576
SDE2 (UniProt Q6IQ49)	-1.16	-0.399	-0.282
ACBD5 (UniProt Q5T8D3)	0.243	-1.5	-0.737
TIAL1 (UniProt Q01085)	-1.23	-0.227	0.0243
DBI (UniProt P07108)	-0.228	1.09	0.274
EVI5 (UniProt O60447)	0.704	-0.272	0.322
WARS (UniProt P23381)	0.737	0.561	0.612
VPS35 (UniProt Q96QK1)	-0.541	0.247	0.378
FAM122B (UniProt Q7Z309)	-0.217	-0.0455	-0.144
SLC30A1 (UniProt Q9Y6M5)	-0.906	0.17	0.0172
LYAR (UniProt Q9NX58)	-3.87	-0.425	-0.893
USP33 (UniProt Q8TEY7)	1.21	-0.155	-0.011
ABHD17B (UniProt Q5VST6)	-0.595	-0.119	0.135
